# Reference: US7273848B2, “Apolipoprotein A-I agonists and their use to treat dyslipidemic disorders” (priority 1997, dated 2007)
# Non-standard residues stand in square brackets, D forms with d. Residues, ends and D or L forms follow the SMILES beside them. No end group written: not given here. Orn = NCCC[C@H](N)C(=O)O; Aib = CC(C)(N)C(=O)O
# Target: T1, LCAT (purified from human plasma) (Homo sapiens, UniProt P04180)
# T1 construct: from tissue; host or cells: human plasma
# T1 sequence (P04180 25-440): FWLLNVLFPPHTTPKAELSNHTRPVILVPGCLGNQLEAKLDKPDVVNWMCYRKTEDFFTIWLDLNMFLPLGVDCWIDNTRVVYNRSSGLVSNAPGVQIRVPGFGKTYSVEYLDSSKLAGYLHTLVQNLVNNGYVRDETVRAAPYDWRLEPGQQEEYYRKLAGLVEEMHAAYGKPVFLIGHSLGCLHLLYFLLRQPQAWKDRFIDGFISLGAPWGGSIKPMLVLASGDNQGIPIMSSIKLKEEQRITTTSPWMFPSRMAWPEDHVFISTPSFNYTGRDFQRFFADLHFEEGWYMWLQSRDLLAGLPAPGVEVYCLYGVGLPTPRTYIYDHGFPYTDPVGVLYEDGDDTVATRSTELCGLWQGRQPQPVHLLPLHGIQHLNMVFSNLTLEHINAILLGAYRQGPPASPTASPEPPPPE
# Assay: LCAT activation assay
# Format: biochemical
# Conditions: LCAT activation as compared with native human ApoA-I (= 100%), equivalent masses
# Procedure, shortened: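 Substrate SUVs of EPC or POPC with 14C-cholesterol (20:1 molar ratio), in 10 mM Tris, 0.14 M NaCl, 1 mM EDTA, pH 7.4, were preincubated with peptide or equal mass of plasma ApoA-I. Reaction started with human plasma LCAT; activation was measured as cholesterol-to-ester conversion relative to ApoA-I (100%).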
row,Compound,ACTIVITY (%) LCAT
1,"CC(C)C[C@H](NC(=O)[C@H](C)NC(=O)[C@H](CCCCN)NC(=O)[C@H](CC(C)C)NC(=O)C(C)(C)NC(=O)[C@H](CCC(=O)O)NC(=O)[C@H](CC(N)=O)NC(=O)[C@H](CC(C)C)NC(=O)[C@H](CCCCN)NC(=O)[C@H](CCC(=O)O)NC(=O)[C@H](CCCNC(=N)N)NC(=O)[C@H](Cc1ccccc1)NC(=O)[C@H](CCC(=O)O)NC(=O)[C@H](CC(=O)O)NC(=O)[C@H](CC(C)C)NC(=O)[C@@H](NC(=O)[C@@H]1CCCN1)C(C)C)C(=O)N[C@@H](CCCCN)C(=O)N[C@@H](CCC(N)=O)C(=O)N[C@@H](CCCCN)C(=O)N[C@@H](CC(C)C)C(=O)N[C@@H](CCCCN)C(=O)O [compound 93, PVLDEFREKLNEXLKALKQKLK] (H-PVLDEFREKLNE[Aib]LKALKQKLK-OH)",5%
2,PVLDLFRELLNELLEAGKQKLK [compound 12],70%
3,"CC(C)C[C@H](NC(=O)[C@H](C)NC(=O)[C@H](CCC(=O)O)NC(=O)[C@H](CC(C)C)NC(=O)C(C)(C)NC(=O)[C@H](CCC(=O)O)NC(=O)[C@H](CC(N)=O)NC(=O)[C@H](CC(C)C)NC(=O)[C@H](CCCCN)NC(=O)[C@H](CCC(=O)O)NC(=O)[C@H](CCCNC(=N)N)NC(=O)[C@H](Cc1ccccc1)NC(=O)[C@H](CCCCN)NC(=O)[C@H](CC(=O)O)NC(=O)[C@H](CC(C)C)NC(=O)[C@@H](NC(=O)[C@@H]1CCCN1)C(C)C)C(=O)N[C@@H](CCCCN)C(=O)N[C@@H](CCC(N)=O)C(=O)N[C@@H](CCCCN)C(=O)N[C@@H](CC(C)C)C(=O)N[C@@H](CCCCN)C(=O)O [compound 74, PVLDKFREKLNEXLEALKQKLK] (H-PVLDKFREKLNE[Aib]LEALKQKLK-OH)",10%
4,PVLELFENLLERWLDALQKKLK [compound 181],8%
5,"CC(C)C[C@H](NC(=O)[C@H](C)NC(=O)[C@H](CCC(=O)O)NC(=O)[C@H](CC(C)C)NC(=O)C(C)(C)NC(=O)[C@H](Cc1c[nH]c2ccccc12)NC(=O)[C@H](CC(N)=O)NC(=O)[C@H](CC(C)C)NC(=O)[C@H](CC(C)C)NC(=O)[C@H](CCC(=O)O)NC(=O)[C@H](CCCNC(=N)N)NC(=O)[C@H](Cc1ccccc1)NC(=O)[C@H](CC(C)C)NC(=O)[C@H](CC(=O)O)NC(=O)[C@H](CC(C)C)NC(=O)[C@@H](NC(=O)[C@@H]1CCCN1)C(C)C)C(=O)N[C@@H](CCCCN)C(=O)N[C@@H](CCC(N)=O)C(=O)N[C@@H](CCCCN)C(=O)N[C@@H](CC(C)C)C(=O)N[C@@H](CCCCN)C(=O)O [compound 101, PVLDLFRELLNWXLEALKQKLK] (H-PVLDLFRELLNW[Aib]LEALKQKLK-OH)",2%
6,PVLDEFREKLNEELEWLKQKLK [compound 122],0%
7,PVLELFKELLQELLEALKQKLK [compound 17],59%
8,CC(C)C[C@H](NC(=O)[C@H](C)NC(=O)[C@H](CCC(=O)O)NC(=O)[C@H](CC(C)C)NC(=O)[C@H](CC(C)C)NC(=O)[C@H](CCC(=O)O)NC(=O)[C@H](CC(N)=O)NC(=O)[C@H](CC(C)C)NC(=O)[C@H](CC(C)C)NC(=O)[C@H](CCC(=O)O)NC(=O)[C@H](CCCNC(=N)N)NC(=O)[C@H](Cc1ccccc1)NC(=O)[C@H](CC(C)C)NC(=O)[C@H](CC(=O)O)NC(=O)[C@H](CC(C)C)NC(=O)[C@H](NC(=O)[C@H]1CCCN1)C(C)C)C(=O)N[C@@H](CCCCN)C(=O)N[C@@H](CCC(N)=O)C(=O)N[C@@H](CCCCN)C(=O)N[C@@H](CC(C)C)C(=O)N[C@@H](CCCCN)C(=O)O [compound 48],22%
9,"CC(C)C[C@H](NC(=O)[C@H](C)NC(=O)[C@H](CCC(=O)O)NC(=O)[C@H](CO)NC(=O)C(C)(C)NC(=O)[C@H](CCC(=O)O)NC(=O)[C@H](CC(N)=O)NC(=O)[C@H](CC(C)C)NC(=O)[C@H](CCCCN)NC(=O)[C@H](CCC(=O)O)NC(=O)[C@H](CCCNC(=N)N)NC(=O)[C@H](Cc1ccccc1)NC(=O)[C@H](CCC(=O)O)NC(=O)[C@H](CC(=O)O)NC(=O)[C@H](CC(C)C)NC(=O)[C@@H](NC(=O)[C@@H]1CCCN1)C(C)C)C(=O)N[C@@H](CCCCN)C(=O)N[C@@H](CCC(N)=O)C(=O)N[C@@H](CCCCN)C(=O)N[C@@H](CC(C)C)C(=O)N[C@@H](CCCCN)C(=O)O [compound 112, PVLDEFREKLNEXSEALKQKLK] (H-PVLDEFREKLNE[Aib]SEALKQKLK-OH)",0%
10,"CC(C)C[C@H](NC(=O)[C@H](C)NC(=O)[C@H](CCC(=O)O)NC(=O)[C@H](CC(C)C)NC(=O)C(C)(C)NC(=O)[C@H](CCC(=O)O)NC(=O)[C@H](Cc1c[nH]c2ccccc12)NC(=O)[C@H](CC(C)C)NC(=O)[C@H](CCCCN)NC(=O)[C@H](CCC(=O)O)NC(=O)[C@H](CCCNC(=N)N)NC(=O)[C@H](Cc1ccccc1)NC(=O)[C@H](CCC(=O)O)NC(=O)[C@H](CC(=O)O)NC(=O)[C@H](CC(C)C)NC(=O)[C@@H](NC(=O)[C@@H]1CCCN1)C(C)C)C(=O)N[C@@H](CCCCN)C(=O)N[C@@H](CCC(N)=O)C(=O)N[C@@H](CCCCN)C(=O)N[C@@H](CC(C)C)C(=O)N[C@@H](CCCCN)C(=O)O [compound 43, PVLDEFREKLWEXLEALKQKLK] (H-PVLDEFREKLWE[Aib]LEALKQKLK-OH)",25%
11,"CC(C)C[C@H](NC(=O)[C@H](C)NC(=O)[C@H](CCC(=O)O)NC(=O)[C@H](CC(C)C)NC(=O)C(C)(C)NC(=O)[C@H](CCC(=O)O)NC(=O)[C@H](CC(N)=O)NC(=O)[C@H](Cc1ccc(O)cc1)NC(=O)[C@H](CC(C)C)NC(=O)[C@H](CCC(=O)O)NC(=O)[C@H](CCCNC(=N)N)NC(=O)[C@H](Cc1ccccc1)NC(=O)[C@H](CCC(=O)O)NC(=O)[C@H](CC(=O)O)NC(=O)[C@H](CC(C)C)NC(=O)[C@@H](NC(=O)[C@@H]1CCCN1)C(C)C)C(=O)N[C@@H](CCCCN)C(=O)N[C@@H](CCC(N)=O)C(=O)N[C@@H](CCCCN)C(=O)N[C@@H](CC(C)C)C(=O)N[C@@H](CCCCN)C(=O)O [compound 92, PVLDEFRELYNEXLEALKQKLK] (H-PVLDEFRELYNE[Aib]LEALKQKLK-OH)",5%
12,PVLELFENLLERLLELLNKKLK [compound 175],13%
13,"CC(C)C[C@H](NC(=O)[C@H](C)NC(=O)[C@H](CCC(=O)O)NC(=O)[C@H](CC(C)C)NC(=O)C(C)(C)NC(=O)[C@H](CCC(=O)O)NC(=O)[C@H](CC(N)=O)NC(=O)[C@H](CC(C)C)NC(=O)[C@H](CCCCN)NC(=O)[C@H](CCC(=O)O)NC(=O)[C@H](CCCNC(=N)N)NC(=O)[C@H](Cc1ccccc1)NC(=O)[C@H](CCC(=O)O)NC(=O)[C@H](CC(=O)O)NC(=O)[C@H](CC(C)C)NC(=O)[C@H](CCCCN)NC(=O)[C@@H]1CCCN1)C(=O)N[C@@H](CCCCN)C(=O)N[C@@H](CCC(N)=O)C(=O)N[C@@H](CCCCN)C(=O)N[C@@H](CC(C)C)C(=O)N[C@@H](CCCCN)C(=O)O [compound 115, PKLDEFREKLNEXLEALKQKLK] (H-PKLDEFREKLNE[Aib]LEALKQKLK-OH)",0%
14,Ac-PVLELFKELLEELKQKLK-NH2 [compound 195],87%
15,Ac-PVLELLKELLEELKQKLK-NH2 [compound 207],50%
16,GVLDLFRELLNEGLEALKQKLK [compound 13],67%

# The next lines start with the values.
row,ACTIVITY (%) LCAT,Compound
1,48%,Ac-PALELFKDLLEELRQRLK-NH2 [compound 208]
2,16%,PVLELFENLLEKLLDLLQKKLK [compound 171]
3,1%,PVLDAFRELGEALLQLKK [compound 226]
4,76%,PVLELFENLLERLFDALQKKLK [peptide 147]
5,35%,PVLELFLNLLERLLDALQKKLK [compound 156]
6,53%,PVLDLFRELLNELLEALQKKLK [peptide 24]
7,29%,Ac-PVLDLFRELLNELLQKLK-NH2 [compound 218]
8,43%,"CC(=O)N1CCC[C@H]1C(=O)N[C@H](C(=O)N[C@@H](CC(C)C)C(=O)N[C@@H](CC(=O)O)C(=O)N[C@@H](CC(C)C)C(=O)N[C@@H](Cc1ccccc1)C(=O)N[C@@H](CCCN)C(=O)N[C@@H](CCC(=O)O)C(=O)N[C@@H](CC(C)C)C(=O)N[C@@H](CC(C)C)C(=O)N[C@@H](CCC(=O)O)C(=O)N[C@@H](CCC(=O)O)C(=O)N[C@@H](CC(C)C)C(=O)N[C@@H](CCCN)C(=O)N[C@@H](CCC(N)=O)C(=O)N[C@@H](CCCN)C(=O)N[C@@H](CC(C)C)C(=O)N[C@@H](CCCCN)C(N)=O)C(C)C [compound 212, PVLDLFOELLEELOQOLK] (Ac-PVLDLF[Orn]ELLEEL[Orn]Q[Orn]LK-NH2)"
9,42%,Ac-PALELFKDLLEEFRQRLK-NH2 [compound 213]
10,58%,GVLDLFRELLNELLEALKQKLK [peptide 18]
11,3%,"CC(C)C[C@H](NC(=O)[C@H](C)NC(=O)[C@H](CC(=O)O)NC(=O)[C@H](CC(C)C)NC(=O)[C@H](CC(C)C)NC(=O)[C@H](CCCNC(=N)N)NC(=O)[C@H](CCC(=O)O)NC(=O)[C@H](CC(C)C)NC(=O)[C@H](CC(C)C)NC(=O)[C@H](CC(N)=O)NC(=O)[C@H](CCC(=O)O)NC(=O)[C@H](Cc1ccccc1)NC(=O)[C@H](CC(C)C)NC(=O)[C@H](CCC(=O)O)NC(=O)[C@H](CC(C)C)NC(=O)[C@@H](NC(=O)[C@@H]1CCCN1)C(C)C)C(=O)N[C@@H](CCC(N)=O)C(=O)N[C@@H](CCCN)C(=O)N[C@@H](CCCN)C(=O)N[C@@H](CC(C)C)C(=O)N[C@@H](CCCN)C(=O)O [compound 185, PVLELFENLLERLLDALQOOLO] (H-PVLELFENLLERLLDALQ[Orn][Orn]L[Orn]-OH)"
12,24%,PVLDLFRELLNELWQKLK [compound 219]
13,38%,PVLELFLNLWERLLDALQKKLK [peptide 155]
